What was measured:
[1] = system: Human colon adenocarcinoma cell line (LS174T); test: BrdU incorporation proliferation assay in LS174T cells; format: cell-based; details: 48 h
Method: (§1) Human colon adenocarcinoma cell line (LS174T), human primary colon cancer cells (CC14) and primary metastatic cells (mCC11) were treated with Avermectin B1 (MicroSource Discovery systems, CT, USA), 5 μM. Control cells were treated with equivalent concentration of DMSO. 48 h after treatment, the percentage of BrdU incorporation was calculated for cells treated with Avermectin B1 as compared to control cells as follows: the number of BrdU positive cells over total number of cells expressed as percentage compared to control cells treated with DMSO only. Cells were cultivated in standard conditions (37° C., 5% CO2) in DMEM containing 10% Fetal Calf Serum.
The same assay as described in Example 1 was carried out on human colon adenocarcinoma cell line LS174T where cell samples were either treated with Abamectin (Sigma #31732) or Doramectin (Sigma #33993) at three different concentrations: 0.1, 1 and 5 μM. Control cells were treated with equivalent concentration of DMSO. 48 h after treatment, the percentage of BrdU incorporation was calculated for cells treated with each macrocyclic lactone as compared to control cells as described above.
(§2) The same assay as described in Example 1 was carried out on human primary colon cancer cells (CC14 and CC36) (TNM IV and III, respectively) and primary metastatic cells (mCC11) from the liver of the patient, on the human adenocarcinoma cell lines DLD1, LS174T, and SW180 and on human skin melanoma cell lines MeWo and SKMel2 where cell samples were treated with Ivermectin (Fabron Iberica S.A.U) or Stromectol™ (Merck & Co. Inc.) which is an oral pharmaceutical formulation of semisynthetic Ivermectin (mixture containing at least 90% 5-O-demethyl-22,23-dihydroavermectin A1a and less than 10% 5-O-demethyl-25-de(1-methylpropyl)-22,23-dihydro-25-(1-methylethyl)avermectin A1a, generally referred to as 22,23-dihydroavermectin B1a and B1b, or H2B1a and H2B1b) at different concentrations: 0.5, 1, 2.5, 5 and 10 μM (Ivermectin diluted in DMSO, Stromectol in Ethanol). Control cells were treated with equivalent concentrations of DMSO. 48 h after treatment the level of BrdU incorporation was calculated for cells treated with each macrocyclic lactone as compared to control cells as described above. IC50 values are calculated by interpolation from a dose response curve fitted using PRISM (Graphpad Software).

[2] = system: human primary colon cancer cells (CC14); test: BrdU incorporation proliferation assay in CC14 cells; format: cell-based; details: 48 h
Method: as §1
(§3) The same assay as described in Example 1 was carried out on human primary colon cancer cells (CC14 and CC36) (TNM IV and III, respectively) and primary metastatic cells (mCC11) from the liver of the patient where cell samples were treated with Abamectin (Sigma #31732) at three different concentrations: 0.1, 1 and 5 μM. Control cells were treated with equivalent concentrations of DMSO. 48 h after treatment the level of BrdU incorporation was calculated for cells treated with each macrocyclic lactone as compared to control cells as described above.
as §2, with “Control cells were treated with equivalent concentrations of DMSO. 48 h after treatment the level of BrdU incorporation was calculated for cells treated with each macrocyclic lactone as compared to control cells as described above. IC50 values are calculated by interpolation from a dose response curve fitted using PRISM (Graphpad Software).” left out

[3] = system: human primary colon cancer cells (CC36); test: BrdU incorporation proliferation assay in CC36 cells; format: cell-based; details: 48 h
Method: as §1
The same assay as described in Example 1 was carried out on human primary colon cancer cells (CC14 and CC36) (TNM IV and III, respectively) and primary metastatic cells (mCC11) from the liver of the patient where cell samples were treated with Abamectin (Sigma #31732) at three different concentrations: 0.1, 1 and 5 μM. Control cells were treated with equivalent concentrations of DMSO. 48 h after treatment the level of BrdU incorporation was calculated for cells treated with each macrocyclic lactone as compared to control cells as described above. […]

[4] = system: primary metastatic cells (mCC11); test: BrdU incorporation proliferation assay in mCC11 cells; format: cell-based, human; details: 48 h
Method: as §1, §3
as §2, with “Control cells were treated with equivalent concentrations of DMSO. 48 h after treatment the level of BrdU incorporation was calculated for cells treated with each macrocyclic lactone as compared to control cells as described above. IC50 values are calculated by interpolation from a dose response curve fitted using PRISM (Graphpad Software).” left out

[5] = system: Wnt pathway; test: Key Wnt target gene expression by quantitative real time PCR in LS174 cells; format: cell-based, human; details: 12 h after 5 μM Avermectin B1 (vs DMSO) or dnTCF4 expression (vs control plasmid)
Method: Key Wnt target gene expression was determined by quantitative real time PCR in LS174 colon adenocarcinoma cell line expressing a dominant negative TCF4 cDNA (dnTCF4) or 12 h after treatment with 5 μM Avermectin B1 (MicroSource Discovery systems, CT, USA). Control cell samples were treated with equivalent concentrations of DMSO. Cells were cultivated in standard conditions as described in Example 1.
Expression levels of individual genes are shown as a percentage compared to their expression levels in control cells treated with DMSO only in the case of Avermectin B1, or transfected with control plasmid in the case of dnTCF4, and are shown in Table 1 below: […]

[6] = system: human skin melanoma cell line SKMel2; test: BrdU incorporation proliferation assay in SKMel2 cells; format: cell-based; details: SKMel2, 0.5, 1, 2.5, 5 and 10 μM, 48 h
Method: as §1, with “Serum. […]” for “Serum.”

[7] = system: human skin melanoma cell line MeWo; test: BrdU incorporation proliferation assay in MeWo cells; format: cell-based; details: MeWo, 0.5, 1, 2.5, 5 and 10 μM, 48 h
Method: as §1, with “Serum. […]” for “Serum.”

[8] = system: human DLD1 CC cell xenografts; test: Mouse xenografts of human colon cancer (DLD1) cells; format: in vivo, nude NMRI mice; details: DLD1 xenografts in nude mice, 10 mg/kg; comparable to dnTCF4 (transgenic Wnt inhibition)
Method: Six- to eight-week-old female nude NMRI (Naval Medical Research Institute) mice each receive two injections of 10^5-10^6 human DLD1 CC cells on their backs as independent subcutaneous xenografts. As soon as the tumor is palpable (1-2 mm) (usually 7-10 days following xenograft), a range of concentrations of Ivermectin (Fabron Iberica S.A.U) or Abamectin (Sigma #31732) (0 (excipient only), 10, 50 and 100 mg/kg/day) is given by oral gavage combined with corn oil or is administered intra-peritoneally (IP) combined with 2-hydroxypropyl-β-cyclodextrin (Sigma, 45% solution) in a second set of experiments. Tumor size is periodically measured with a caliper. Mice are sacrificed before the tumors approach the legal size limit and the tumors are removed and analysed for proliferation (BrdU assay), apoptosis (Caspase3 assay, Varnat et al., 2009, EMBO Mol. Med., 1, 338-351) and invasion (Varnat et al., 2010, above). Control mice are treated with carrier-only control cells, or cells expressing a dominant-negative TCF4 construct (dnTCF4), which acts to actively repress Wnt-TCF signalling.

[9] = system: human adenocarcinoma cell line DLD1; test: BrdU incorporation proliferation assay in DLD1 cells; format: cell-based; details: DLD1, 0.5, 1, 2.5, 5 and 10 μM, 48 h
Method: as §1, with “Serum. […]” for “Serum.”

[10] = system: human glioblastoma cancer cell lines and cells from primary human glioblastoma tumors; test: BrdU incorporation proliferation assay in glioblastoma cells; format: cell-based; details: 48 h
[11] = system: human adenocarcinoma cell line SW180; test: BrdU incorporation proliferation assay in SW180 cells; format: cell-based; details: SW180, 0.5, 1, 2.5, 5 and 10 μM, 48 h
Method: as §1, with “Serum. […]” for “Serum.”

CO[C@H]1C[C@H](O[C@H]2[C@H](C)O[C@@H](O[C@@H]3/C(C)=C/C[C@@H]4C[C@@H](C[C@]5(C=C[C@H](C)[C@@H](C6CCCCC6)O5)O4)OC(=O)[C@@H]4C=C(C)[C@@H](O)[C@H]5OC/C(=C\C=C\[C@@H]3C)[C@]54O)C[C@@H]2OC)O[C@@H](C)[C@@H]1O [Doramectin, 25-cyclohexyl-5-O-demethyl-25-de(1-methylpropyl)avermectin A1a]
proliferation (BrdU incorporation), dose-effect ([1]; LS174T, 0.1, 1 and 5 μM): decreases proliferation in a dose-dependent manner

Abamectin
proliferation (BrdU incorporation), dose-effect ([2]; CC14, 0.1, 1 and 5 μM): decreases proliferation in a dose-dependent manner
proliferation (BrdU incorporation), dose-effect ([3]; CC36, 0.1, 1 and 5 μM): decreases proliferation in a dose-dependent manner
proliferation (BrdU incorporation), dose-effect ([1]; LS174T, 0.1, 1 and 5 μM): decreases proliferation in a dose-dependent manner
proliferation (BrdU incorporation), dose-effect ([4]; mCC11, 0.1, 1 and 5 μM): decreases proliferation in a dose-dependent manner

Avermectin B1
AXIN2 expression level as percentage compared to control cells [5]: 62%
C-MYC expression level as percentage compared to control cells [5]: 35%
EPHB2 expression level as percentage compared to control cells [5]: 78%
EPHB3 expression level as percentage compared to control cells [5]: 55%
EPNB1 expression level as percentage compared to control cells [5]: 277%
LGR5 expression level as percentage compared to control cells [5]: 3%
P21 expression level as percentage compared to control cells [5]: 635%
proliferation (percentage of BrdU incorporation compared to DMSO control) ([2]; CC14, 5 μM): decreases to a minimum of half the proliferation
proliferation (percentage of BrdU incorporation compared to DMSO control) ([1]; LS174T, 5 μM): decreases to a minimum of half the proliferation
proliferation (percentage of BrdU incorporation compared to DMSO control) ([4]; mCC11, 5 μM): decreases to a minimum of half the proliferation

Ivermectin
proliferation (BrdU incorporation), dose-effect [6]: decreases proliferation in a dose-dependent manner
proliferation (BrdU incorporation), dose-effect [7]: decreases proliferation in a dose-dependent manner
colon cancer xenograft growth [8]: able to inhibit colon cancer xenograft growth
proliferation (BrdU incorporation), dose-effect [9]: decreases proliferation in a dose-dependent manner
proliferation (BrdU incorporation), dose-effect ([2]; CC14, 0.5, 1, 2.5, 5 and 10 μM): decreases proliferation in a dose-dependent manner
proliferation (BrdU incorporation), dose-effect ([3]; CC36, 0.5, 1, 2.5, 5 and 10 μM): decreases proliferation in a dose-dependent manner
proliferation (BrdU incorporation), dose-effect [10]: decreases proliferation in a dose-dependent manner
proliferation (BrdU incorporation), dose-effect ([1]; LS174T, 0.5, 1, 2.5, 5 and 10 μM): decreases proliferation in a dose-dependent manner
proliferation (BrdU incorporation), dose-effect [11]: decreases proliferation in a dose-dependent manner
proliferation (BrdU incorporation), dose-effect ([4]; mCC11, 0.5, 1, 2.5, 5 and 10 μM): decreases proliferation in a dose-dependent manner

— US9351988B2, “Macrocyclic lactones and use thereof” (UNIVERSITE DE GENEVE, priority 2011, dated 2016)
